Measurements: US7074802B2, “Pyrimidine derivatives as selective inhibitors of cox-2” (Glaxo Group Limited, priority 2001, dated 2006)

Tests used:
microsomal h-COX2 = biological target: T1, microsomal h-COX2 (Homo sapiens, UniProt P35354); test: Microsomal assay, inhibition of COX-2; format: biochemical; details: microsomal preparation from baculovirus infected SF9 cells; PGE2 by EIA
T1 construct: made in house; host or cells: baculovirus infected SF9 cells (microsomal preparation)
T1 sequence (P35354 18-604): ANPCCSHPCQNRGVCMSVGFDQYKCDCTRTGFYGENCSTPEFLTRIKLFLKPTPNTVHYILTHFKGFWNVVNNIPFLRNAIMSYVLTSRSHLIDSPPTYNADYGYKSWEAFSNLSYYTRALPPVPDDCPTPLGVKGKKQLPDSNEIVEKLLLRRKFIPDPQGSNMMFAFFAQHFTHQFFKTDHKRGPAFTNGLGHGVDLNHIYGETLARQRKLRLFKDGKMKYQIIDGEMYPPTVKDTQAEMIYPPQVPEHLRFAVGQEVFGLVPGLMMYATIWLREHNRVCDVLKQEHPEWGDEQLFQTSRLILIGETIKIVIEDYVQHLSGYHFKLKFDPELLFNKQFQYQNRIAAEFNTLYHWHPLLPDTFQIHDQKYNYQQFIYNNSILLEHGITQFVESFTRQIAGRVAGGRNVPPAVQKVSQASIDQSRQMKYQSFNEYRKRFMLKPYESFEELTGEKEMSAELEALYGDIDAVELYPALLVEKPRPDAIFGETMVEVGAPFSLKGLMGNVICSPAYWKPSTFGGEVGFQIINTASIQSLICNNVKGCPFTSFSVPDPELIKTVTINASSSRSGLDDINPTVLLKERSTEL
Method: (§1) Inhibitory activity against microsomal h-COX2 was assessed against a microsomal preparation from baculovirus infected SF9 cells. An aliquot of microsomal preparation was thawed slowly on ice and a 1/40,000 dilution prepared from it into the assay buffer (sterile water, degassed with argon containing 100 mM HEPES (pH 7.4), 10 mM EDTA (pH7.4), 1 mM phenol, 1 mM reduced glutathione, 20 mg/ml gelatin and 0.001 mM Hematin). Once diluted the enzyme solution was then sonicated for 5 seconds (Branson sonicator, setting 4, 1 cm tip) to ensure a homogeneous suspension. 155 μl enzyme solution was then added to each well of a 96-well microtitre plate containing either 5 μl test compound (40× required test concentration) or 5 μl DMSO for controls. Plates were then mixed and incubated at room temperature for 1 hour. Following the incubation period, 40 μl of 0.5 μM arachidonic acid was added to each well to give a final concentration of 0.1 μM. Plates were then mixed and incubated for exactly 10 minutes (room temperature) prior to addition of 25 μl 1M HCl (hydrochloric acid) to each well to stop the reaction. 25 μl of 1M NaOH (sodium hydroxide) was then added to each well to neutralise the solution prior to determination of PGE2 levels by enzyme immunoassay (EIA).
(§2) The following IC50 values for inhibition of COX-2 and COX-1 were obtained from the microsomal assay for compounds of the invention: […]

COX-1 = COX-1 (Homo sapiens, UniProt P23219); test: Microsomal assay, inhibition of COX-1; format: biochemical
COX-1, sequence (P23219 24-599): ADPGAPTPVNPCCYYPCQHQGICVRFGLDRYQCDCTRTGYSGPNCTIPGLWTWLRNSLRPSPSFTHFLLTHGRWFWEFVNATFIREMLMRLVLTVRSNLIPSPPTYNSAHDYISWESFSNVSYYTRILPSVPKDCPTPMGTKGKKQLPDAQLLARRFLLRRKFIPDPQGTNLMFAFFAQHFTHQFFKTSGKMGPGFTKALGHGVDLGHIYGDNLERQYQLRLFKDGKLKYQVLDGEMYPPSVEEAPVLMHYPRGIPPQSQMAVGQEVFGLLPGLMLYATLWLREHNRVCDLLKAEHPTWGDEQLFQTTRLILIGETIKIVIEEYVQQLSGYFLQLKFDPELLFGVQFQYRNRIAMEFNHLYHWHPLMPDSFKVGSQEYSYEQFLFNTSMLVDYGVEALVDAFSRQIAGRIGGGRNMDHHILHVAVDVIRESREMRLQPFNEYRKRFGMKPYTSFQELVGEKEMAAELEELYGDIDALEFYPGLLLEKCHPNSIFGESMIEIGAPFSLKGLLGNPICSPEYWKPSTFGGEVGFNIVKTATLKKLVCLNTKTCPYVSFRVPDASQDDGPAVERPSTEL
Method: as §1, §2

IC50 (microsomal h-COX2) [nM] | IC50 (COX-1) [nM] | SMILES
17 | > 94000 | CCCCNc1nc(-c2ccc(S(C)(=O)=O)cc2)cc(C(F)F)n1 [Example 2, N-butyl-4-(difluoromethyl)-6-[4-(methylsulfonyl)phenyl]pyrimidin-2-amine]
761 | > 10000 | CCCCNc1nc(CF)cc(-c2ccc(S(C)(=O)=O)cc2)n1 [Example 1, N-Butyl-4-(fluoromethyl)-6-[4-(methylsulfonyl)phenyl]pyrimidin-2-amine]
